Legend:
RXRα [1] = molecular target: T1, RXRα (Homo sapiens, UniProt P19793, R316E); experiment: mammalian one-hybrid reporter in MCF-7 cells ([…]); assay type: cell-based
T1 construct: gene RXRA; Gal4-DBD-RXRα-LBD
T1 sequence (P19793 223-462 R316E limits assumed): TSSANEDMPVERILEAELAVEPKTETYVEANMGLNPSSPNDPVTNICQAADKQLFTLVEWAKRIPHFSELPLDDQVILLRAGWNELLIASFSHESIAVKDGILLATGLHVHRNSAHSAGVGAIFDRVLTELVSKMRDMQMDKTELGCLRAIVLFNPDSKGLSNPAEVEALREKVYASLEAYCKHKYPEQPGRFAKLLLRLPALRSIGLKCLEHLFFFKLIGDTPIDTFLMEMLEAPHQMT

RXRα [2] = molecular target: T2, RXRα (Homo sapiens, UniProt P19793, W305A); experiment: SPR (BIAcore T200); assay type: binding
T2 construct: gene RXRA; RXRα-LBD
T2 sequence (P19793 223-462 W305A): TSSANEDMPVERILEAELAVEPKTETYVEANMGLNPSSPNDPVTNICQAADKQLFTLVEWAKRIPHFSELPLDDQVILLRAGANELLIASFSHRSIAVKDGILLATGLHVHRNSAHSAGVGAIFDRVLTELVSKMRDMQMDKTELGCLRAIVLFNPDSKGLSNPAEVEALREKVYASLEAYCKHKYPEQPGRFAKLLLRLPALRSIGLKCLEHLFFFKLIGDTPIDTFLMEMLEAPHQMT

RXRα [3] = molecular target: T1, RXRα; experiment: mammalian one-hybrid reporter in MCF-7 cells, antagonism of CD3254 (N-6 at […]); assay type: cell-based
RXRα [4] = molecular target: T3, RXRα (Homo sapiens, UniProt P19793); experiment: SPR (BIAcore T200); also [3H]9-cis-RA competition (IC50 […]), fluorescence binding, TR-FRET coactivator assay (IC50 […])
T3 construct: gene RXRA; His-tagged human RXRα-LBD (223–462)
T3 sequence (P19793 223-462): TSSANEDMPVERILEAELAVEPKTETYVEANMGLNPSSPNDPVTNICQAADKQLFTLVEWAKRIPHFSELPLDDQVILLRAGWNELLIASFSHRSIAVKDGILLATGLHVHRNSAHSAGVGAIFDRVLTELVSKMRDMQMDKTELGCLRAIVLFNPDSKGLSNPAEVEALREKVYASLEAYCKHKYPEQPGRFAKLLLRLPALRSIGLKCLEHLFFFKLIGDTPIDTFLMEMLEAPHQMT

[5] = molecular target: the molecule itself; experiment: native gel or EMSA; RXRα-LBD protein (2 mg/mL) incubated with DMSO, 10 μmol/L 9-cis-RA, 25 or 50 μmol/L N-6 for 3 h; 8% nondenaturing PAGE, Coomassie staining

Cc1cc2c(cc1-c1cc(/C=C/C(=O)O)ccc1O)C(C)(C)CCC2(C)C [CD3254]
mammalian one-hybrid reporter in MCF-7 cells (10^-7 mol/L) (RXRα [1]): CD3254 was able to stimulate the transactivation of the mutant

C/C(=N/O)c1sc(-n2nc(-c3ccccc3)cc2-c2ccccc2)nc1C [N-6, (NZ)-N-[1-[2-(3,5-diphenylpyrazol-1-yl)-4-methyl-1,3-thiazol-5-yl]ethylidene]droxylamine]
Kd (RXRα [2]): 1000 µM
mammalian one-hybrid reporter in MCF-7 cells, antagonism of CD3254 (N-6 at 10 μm) (RXRα [3]): CD3254-induced transactivation of RXRα-LBD/R316E was potently inhibited by N-6
Kd (RXRα [4]): 15.7 µM

B1: His-tagged human RXRα-LBD (223–462) (domain or fragment, UniProt P19793 223-462, looked up)
chain: TSSANEDMPVERILEAELAVEPKTETYVEANMGLNPSSPNDPVTNICQAADKQLFTLVEWAKRIPHFSELPLDDQVILLRAGWNELLIASFSHRSIAVKDGILLATGLHVHRNSAHSAGVGAIFDRVLTELVSKMRDMQMDKTELGCLRAIVLFNPDSKGLSNPAEVEALREKVYASLEAYCKHKYPEQPGRFAKLLLRLPALRSIGLKCLEHLFFFKLIGDTPIDTFLMEMLEAPHQMT
stoichiometry N [5]: 2
